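How tested: cells in 96-well plates exposed to compound for 48 hours at five concentrations. At the GI50, growth is halved. At the TGI there is no net growth.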
Key:
Assay in all cases: NCI-60 cell line screen, 48 h
A549 NSCLC = system: A549 NSCLC
CAKI-1 renal = system: CAKI-1 renal
LOX IMVI melanoma = system: LOX IMVI melanoma
OVCAR-3 ovarian = system: OVCAR-3 ovarian
OVCAR-5 ovarian = system: OVCAR-5 ovarian
SF-268 CNS = system: SF-268 CNS
SK-MEL-2 melanoma = system: SK-MEL-2 melanoma
SNB-19 CNS = system: SNB-19 CNS
HCT-116 colon = system: HCT-116 colon
SR leukemia = system: SR leukemia

| SMILES | GI50 (A549 NSCLC) [µM] | TGI (A549 NSCLC) [µM] | GI50 (CAKI-1 renal) [µM] | TGI (CAKI-1 renal) [µM] | GI50 (LOX IMVI melanoma) [µM] | TGI (LOX IMVI melanoma) [µM] | GI50 (OVCAR-3 ovarian) [µM] | TGI (OVCAR-3 ovarian) [µM] | GI50 (OVCAR-5 ovarian) [µM] | TGI (OVCAR-5 ovarian) [µM] | GI50 (SF-268 CNS) [µM] | TGI (SF-268 CNS) [µM] | GI50 (SK-MEL-2 melanoma) [µM] | TGI (SK-MEL-2 melanoma) [µM] | GI50 (SNB-19 CNS) [µM] | TGI (SNB-19 CNS) [µM] | GI50 (HCT-116 colon) [µM] | TGI (HCT-116 colon) [µM] | TGI (SR leukemia) [µM] | GI50 (SR leukemia) [µM] |
| --- | --- | --- | --- | --- | --- | --- | --- | --- | --- | --- | --- | --- | --- | --- | --- | --- | --- | --- | --- | --- |
| C=CCCCC(O)c1ccc(C(O)c2cnc3ccccc3c2)o1 (stereo not given) | 31 | > 100 | 31.4 | 98.4 | 17.1 | 33.8 | 88.2 | > 100 | 24.4 | 76.8 | 32.5 | > 100 | 34.1 | > 100 | 82.5 | > 100 |  |  |  |  |
| COc1cc(/C=C2\CC3C4CCC5=CC(=O)CC[C@]5(C)C4CC[C@]3(C)C2=O)ccc1OCCN1CCCCC1 (stereo not given in full) | 11 | 41.1 | 2.29 | 5.89 | 1.42 | 3.3 | 1.83 | 4.59 | 8.26 | 28.5 | 4.72 | 16.4 | 22 | > 100 | 6.16 | 31 | 2.11 | 5.75 |  |  |
| Cc1cc(C)c(C(=O)/C(=C/c2ccccc2)c2ccccc2)c(C)c1 |  | > 100 |  | > 100 |  |  |  | > 100 |  |  |  | > 100 |  | 43.4 |  | > 100 |  | > 100 | > 100 |  |
| COc1ccc(Nc2ncccc2C(=O)NCc2cn(Cc3cccc(Oc4ccccc4)c3)nn2)c(OC)c1 | 3.7 | > 100 | 1.26 | > 100 | 2.54 | > 100 | 1.11 | 4.78 | 6.72 | > 100 | 3.34 | > 100 | 5.03 | > 100 | 3.64 | > 100 | 1.66 | > 100 |  |  |
| Cc1ccnc(NC(c2ccccc2)c2ccc3cccnc3c2O)c1 (stereo not given) | 3.99 | 45.1 | 1.68 | 7.17 | 3.29 | 34.2 | 2.79 | 14 | 8.86 | > 100 | 2.93 | 21.5 |  |  | 6.28 | > 100 | 2.94 | 14.5 | > 100 | 2.7 |
| Cc1cc(C)c(C2=NO[C@@H]3C(=O)N(c4ccc(Cc5ccc(N6C(=O)[C@H]7C(c8c(C)cc(C)cc8C)=NO[C@H]7C6=O)cc5)cc4)C(=O)[C@H]23)c(C)c1 |  | > 100 |  | > 100 |  | > 100 |  | > 100 |  | > 100 |  | > 100 |  | > 100 |  |  |  |  |  |  |
| CCCCC1N=CNc2c1ccc1c2[nH]c2ccccc21 (stereo not given) |  | 10.6 |  | 9.16 |  |  |  | 12.2 |  | 9.07 |  | 29.4 |  | 8.89 |  | 24.9 |  | 3.32 | 4.66 |  |
| CSc1nc(SC)c2c(C)cn(C3OC(C)C(O)C(O)C3O)c2n1 (stereo not given) |  | > 100 |  |  |  | > 100 |  | > 100 |  | > 100 |  | > 100 |  | > 100 |  | > 100 |  | > 100 | > 100 |  |
| O=Cc1cn(S(=O)(=O)c2ccccc2)c2ccccc12 |  | > 100 |  |  |  | 43.8 |  | > 100 |  | > 100 |  | > 100 |  |  |  | > 100 |  | 40.1 | 67.1 |  |
| C1C[S][Ge]2([S]CCS1)[S]CCSCC[S]2 |  |  | > 100 | > 100 |  |  |  |  |  |  | > 100 | > 100 | > 100 | > 100 |  |  | > 100 | > 100 | > 100 | > 100 |
| Cc1nc(-n2nc(-c3ccccc3)cc2-c2ccccc2)sc1C(/C=C/c1ccc([N+](=O)[O-])cc1)=N/NC(N)=S |  | > 100 |  | > 100 |  |  |  | > 100 |  | > 100 |  | > 100 |  | > 100 |  | > 100 |  | 43.4 |  |  |
| O=c1[nH]c(-c2ccc([N+](=O)[O-])cc2)nc2ccc(Cl)cc12 |  | > 100 |  |  |  |  |  |  |  | > 100 |  | > 100 |  | > 100 |  | > 100 |  | > 100 |  |  |
| NNc1ncnc2cccc(Cl)c12 |  | > 100 |  | > 100 |  |  |  | > 100 |  | > 100 |  | > 100 |  |  |  | > 100 |  | > 100 | > 100 |  |
| C/C(CC(=O)Nc1ccc([N+](=O)[O-])cc1)=N\Nc1ccc([N+](=O)[O-])cc1[N+](=O)[O-] |  | > 100 |  |  |  | > 100 |  | > 100 |  | > 100 |  | > 100 |  | > 100 |  |  |  | > 100 |  |  |
| CN(CC1NCCCC1O)C12CC3CC(CC(C3)C1)C2 (stereo not given) |  | > 100 |  | > 100 |  | > 100 |  | > 100 |  | > 100 |  | > 100 |  |  |  | > 100 |  |  |  |  |
| C=C1CCC2(C(C)=O)COC1(C)O2 (stereo not given) |  | > 100 |  |  |  | > 100 |  | > 100 |  |  |  |  |  |  |  | > 100 |  | > 100 |  |  |
| CN1c2ccccc2S(=O)(=O)n2c(COc3ccccc3)nnc21 |  | > 100 |  | > 100 |  | > 100 |  | > 100 |  | > 100 |  | > 100 |  | > 100 |  | > 100 |  | > 100 |  |  |
| O=C1c2ccccc2-c2ccccc2C1(Cl)Cl | 1.49 | 3.21 | 1.17 | 2.63 | 0.314 |  | 1.41 | 2.71 |  |  | 1.28 | 2.59 | 1.52 | 3.02 | 1.84 | 4.66 | 0.3 | 1.09 | 8.71 | 2.71 |
| COc1cc(=O)oc(/C=C/CO)c1C |  | > 100 |  | > 100 |  | > 100 |  | > 100 |  | > 100 |  | > 100 |  |  |  | > 100 |  | > 100 | > 100 |  |
| O=C(Nc1ccc(Cl)cc1)c1cc2ccccc2cc1OP(=O)(O)O | 4.85 | > 100 | 1.77 | 11.1 | 3.52 | 17.5 | 3.22 | 11.2 | 6.51 | 42.3 | 3.9 | 40 | 3.58 | 24.4 |  |  | 3 | 11.9 | > 100 | 23.7 |
